Drawing on patent publication US20050043292A1, “Fluorinated lysine derivatives as dipeptidyl peptidase IV inhibitors” (Pfizer Inc, priority 2003, published 2005), this text covers IC50 for one compound.

Structures can show the parent of a compound that is named as a salt.

In the test the target is T1, DPP-IV (Homo sapiens, UniProt P27487).
T1 construct: purchased Enzyme Systems Products SPE-01
The experiment in a line: In vitro Assay for Dipeptidyl Peptidase Inhibition. Conditions: in vitro activity, Gly-Pro-4-methoxy-β-naphthylamide substrate, overnight at 37° C., read-out: IC50 (concentration of test compound required for 50% inhibition). The test is classed as biochemical. On the procedure:
150 μL of an enzyme-substrate solution is pipetted into microtiter wells of a polystyrene 96-well plate, and maintained at 4° C. The enzyme-substrate solution comprises 50 μM Gly-Pro4-methoxy B naphthylamide HCl in 50 mM Tris assay buffer pH 7.3 containing 0.1M sodium chloride, 0.1% (v/v) Triton and 50 μU/mL DPP-IV (Enzyme Systems Products Cat#SPE-01, DPP-IV 5 mU/mL stock). 5μL/well of compounds of Formula I are added, bringing the final compound of Formula I concentrations to 3 μM-10 nM per well.
Controls. Enzyme is omitted from four (4) wells, as a reagent blank. 5 μL of 3 mM Diprotin A is added to four wells as a positive quality control, providing a final Diprotin A concentration of 100 μM. To measure total enzyme activity (i.e. a negative control), without the influence of any compounds of Formula I, 5 μL of distilled water is added to four wells.
The entire assay is incubated overnight (about 14-18 hours) at 37° C.

T1 sequence (P27487 whole entry, species assumed): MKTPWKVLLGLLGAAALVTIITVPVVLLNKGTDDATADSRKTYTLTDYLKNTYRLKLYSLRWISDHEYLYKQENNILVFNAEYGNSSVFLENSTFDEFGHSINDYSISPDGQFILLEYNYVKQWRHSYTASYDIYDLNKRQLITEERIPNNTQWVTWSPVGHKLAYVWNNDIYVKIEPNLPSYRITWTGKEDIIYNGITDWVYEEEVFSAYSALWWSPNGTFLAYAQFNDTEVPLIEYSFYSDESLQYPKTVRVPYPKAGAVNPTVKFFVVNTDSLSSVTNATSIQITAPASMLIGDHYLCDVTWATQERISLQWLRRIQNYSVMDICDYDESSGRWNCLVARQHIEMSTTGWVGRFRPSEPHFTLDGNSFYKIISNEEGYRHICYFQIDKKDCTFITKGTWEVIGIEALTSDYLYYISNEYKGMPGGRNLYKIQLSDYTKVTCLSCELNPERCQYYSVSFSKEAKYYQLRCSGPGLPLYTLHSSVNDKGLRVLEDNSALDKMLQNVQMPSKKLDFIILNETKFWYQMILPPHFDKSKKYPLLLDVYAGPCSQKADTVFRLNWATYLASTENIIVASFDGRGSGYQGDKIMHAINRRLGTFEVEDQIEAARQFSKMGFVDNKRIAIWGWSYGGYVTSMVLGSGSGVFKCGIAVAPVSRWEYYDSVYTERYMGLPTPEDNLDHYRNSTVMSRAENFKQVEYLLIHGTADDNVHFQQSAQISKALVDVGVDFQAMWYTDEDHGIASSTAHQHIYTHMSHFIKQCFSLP

Consider `N[C@@H](CCCCNC(=O)COc1ccccc1)C(=O)N1CC(F)(F)C(F)(F)C1` [Example 6, (S)-N-[5-Amino-6-oxo-6-(3,3,4,4-tetrafluoro-pyrrolidin-1-yl)-hexyl]-2-phenoxy-acetamide Hydrochloride], for which the IC50 is roughly 1.4 µM.
